From US20110269825A1, “Modified Thromboxane A2 Receptor Promoter Sequence” (priority 2008, published 2011)
Several values for one entry are separate records, joined by “and”; a condition that tells them apart may be missing. Identical values can stand only once.

Columns and labels:
Assay type in all cases: cell-based, human
[1] = system: Prm1-directed luciferase expression; test: Effect of PMA, PD98059 or Vitamin D3 on Prm1-directed luciferase expression in HEL cells
Description: HEL and EA.hy 926 cells were co-transfected with the various pGL3Basic-recombinant plasmids (2 mg), encoding firefly luciferase, along with pRL-TK (200 ng), encoding renilla luciferase, using DMRIE-C® transfection reagent. HEK293, WI-38, and 1° hAoSMCs were co-transfected with the pGL3Basic-recombinant plasmids (2 mg), along with pRL-TK (200 ng), using Effectene transfection reagent. In all cases, cells co-transfected with pRL-TK (200 ng) in the presence of either the pGL3Control vector (firefly luciferase gene under the control of the SV40 promoter; 2 mg) or the promoter-less pGL3Basic empty vector (2 mg), which served as positive and negative controls, respectively. […] Relative firefly to renilla luciferase activity (arbitrary units) was calculated as a ratio and was expressed in relative luciferase units (RLU). To investigate the effect of over-expression of exon 5 (+ or −) or KTS (+ or −) isoforms of WT1 on Prm1-directed gene expression, HEL cells were co-transfected with either pGL3b:Prm1 or pGL3b:Prm1D (1.5 μg) plus 200 ng of pRL-TK along with either pcDNA3:WT1 (+/+), pcDNA3:WT1 (+/−), pcDNA3:WT1 (−/+), pcDNA3:WT1 (−/−) (0.5 μg), or as a control, pcDNA3 (0.5 μg). […] The plasmid pCMV5-NAB1, containing the entire coding sequence for NAB1, was generously donated by Dr. Gerald Thiel, University of Saarland Medical Center, Homburg, Germany, and has been described previously (Thiel et al., 2000). To investigate the effect of over-expression of NAB1 on the PMA-mediated induction of Prm1-directed gene expression, HEL cells were transiently co-transfected with pGL3b:Prm1 (2 μg) plus pRL-TK (200 ng) along with either pCMV5 (control) or pCMV:NAB1 (1 μg).

[2] = system: TPα mRNA; test: RT-PCR and Southern blot analysis of TPα mRNA expression in HEL cells; details: PMA 100 nM, 2 to 48 h
Description: Total RNA was isolated from HEL 92.1.7 cells (5×10^6 approximately) using TRIzol reagent (Invitrogen Life Technologies). RT-PCR was carried out with DNase 1-treated total RNA using oligonucleotide primers to specifically amplify TPα and glyceraldehyde-3-phosphate dehydrogenase (GAPDH) mRNA sequences, as previously described (Miggin et al., 1998). The following primers were used: […]
Following agarose gel electrophoresis, PCR products were transferred to Biodyne® B positively-charged nylon membrane (PaII) using standard methodology (Sambrook et al., 1989). Southern blot analysis of the RT-PCR products was carried out using oligonucleotide probes (5′ end-labelled with biotin) specific for TPα (Kin 583: 5′[Btn][…] GAAG3′, SEQ ID NO:80) and GAPDH (Kin 584: 5′[Btn][…]3′, SEQ ID NO:81] mRNA sequences and detection was carried out using the Detector™ HRP Chemiluminescent Blotting Kit (KPL), as described by the manufacturer.

[3] = system: −8460 to −8006 region of Prm1; test: ChIP analysis of WT1, Egr1 and Sp1 binding to Prm1 in PMA-treated HEL cells; details: PMA 100 nM for 5, 8 or 16 h
Description: Chromatin immunoprecipitation (ChIP) assays were performed essentially as described (Koch et al., 2007). Specifically, HEL cells (1×10^8) were pelleted, washed in ice-cold PBS and resuspended in serum-free RPMI 1640. Formaldehyde-cross linked chromatin was sonicated, as described (Koch et al., 2007), to generate fragments 500 bp to 1000 bp in length. Prior to immunoprecipitation (IP), chromatin was incubated with 60 μg normal rabbit IgG overnight at 4° C. on a rotisserie, after which 250 μl of salmon sperm DNA/protein A agarose beads (Millipore) were added and chromatin was precleared for 3 h at 4° C. with rotation. Thereafter, anti-WT1, anti-NF-E2, anti-Sp1, anti-Egr1, anti-GATA-1, anti-Ets-1 ([…]), normal rabbit IgG (10 μg), or a “no antibody” control were used for immunoprecipitation. Following elution, cross-links were reversed by incubation at 65° C. overnight followed by protease digestion with proteinase K (Sigma; 9 μl of 10 mg/ml) at 45° C. for 7 h. After precipitation, samples were resuspended in 50 μl dH2O. PCR analysis was carried out using 2-3 μl of ChIP sample as template or, as a positive control, with an equivalent volume of a 1:20 dilution of the input chromatin DNA. The identities of the primers used for the ChIP PCR reactions, as well as their sequences and corresponding nucleotides within Prm1 are listed below. […]

[4] = system: WT1; test: Confocal microscopy of WT1 localization in PMA-treated HEL cells; details: PMA 100 nM, at 5 h and 8 h
Description: HEL 92.1.7 cells were seeded at ˜1×10^5 cells/ml in 2 ml normal growth media (RPMI 1640, 10% FBS) in 6-well plates containing Poly-L-lysine coated coverslips. Cells were grown at 37° C. for 24 h prior to incubating cells with 100 nM PMA for 0, 1, 5, 8, 16 and 24 h. Thereafter, cells were fixed in 3.4% paraformaldehyde and permeabilized with 0.2% Triton X-100 for 10 min on ice, after which cells were immunolabelled with anti-WT1 (1:1000 of 2 μg/μl stock) and AlexaFluor488 conjugated anti-rabbit, followed by counterstaining with DAPI (1 μg/ml in H2O). Images were obtained using Carl Zeiss Lazer Scanning System LSM510 and Zeiss LSM Imaging software for acquiring multi-channel images with filters appropriate for enhanced DAPI & AlexaFluor488.

CCCCCCCCCCCCCC(=O)O[C@@H]1[C@@H](C)[C@@]2(O)[C@@H](C=C(CO)C[C@]3(O)C(=O)C(C)=C[C@@H]23)[C@@H]2C(C)(C)[C@]12OC(C)=O [PMA, phorbol 12-myristate 13-acetate]
Time of incubation to significantly increased Prm1-directed luciferase activity ([1]; PMA 100 nM, 0-48 h): ≤ 4 h
Increase in Prm1-directed luciferase expression ([1]; PMA 100 nM, 16 h, vs vehicle): 4 fold and 4.3 fold
Effect on luciferase expression directed by the Prm1K sub-fragment ([1]; PMA alone 100 nM, 16 h): neither PMA alone (p=0.4721) nor PMA plus PD98059 (p=0.2693) had any significant effect
TPα mRNA expression [2]: time-dependent, sustained increase in TPα mRNA expression
Binding of WT1, Egr1 and Sp1 to Prm1 chromatin [3]: substantial changes in the pattern of binding of these factors to distal upstream GC-enriched elements
Intracellular localization of WT1 [4]: redistribution of WT1 to the cytosolic fraction
